Results as given in patent US20040171566A1, “Antisense modulation of p38 mitogen activated protein kinase expression” (priority 1999, published 2004).
e = 2'-O-(2-methoxyethyl) (MOE); d = 2'-deoxy (DNA)

Experiments:
[1] = system: mouse p38α mRNA; test: Mouse p38α mRNA levels in bEND.3 cells, quantitative real-time PCR; assay type: cell-based; set-up: % Inhib. mouse p38α: concentration or dose not given beside the values; settings: bEND.3 cells, mRNA by quantitative real-time PCR, average of two experiments
Excerpt: (§1) Quantitation of p38α mRNA levels was accomplished by real-time quantitative PCR using the ABI PRISM™ 7600, 7700, or 7900 Sequence Detection System (PE-Applied Biosystems, Foster City, Calif.) according to manufacturer's instructions. This is a closed-tube, non-gel-based, fluorescence detection system which allows high-throughput quantitation of polymerase chain reaction (PCR) products in real-time. As opposed to standard PCR in which amplification products are quantitated after the PCR is completed, products in real-time quantitative PCR are quantitated as they accumulate. This is accomplished by including in the PCR reaction an oligonucleotide probe that anneals specifically between the forward and reverse PCR primers, and contains two fluorescent dyes. A reporter dye (e.g., FAM or JOE, obtained from either PE-Applied Biosystems, Foster City, Calif., Operon Technologies Inc., Alameda, Calif. or Integrated DNA Technologies Inc., Coralville, Iowa) is attached to the 5′ end of the probe and a quencher dye (e.g., TAMRA, obtained from either PE-Applied Biosystems, Foster City, Calif., Operon Technologies Inc., Alameda, Calif. or Integrated DNA Technologies Inc., Coralville, Iowa) is attached to the 3′ end of the probe. When the probe and dyes are intact, reporter dye emission is quenched by the proximity of the 3′ quencher dye. During amplification, annealing of the probe to the target sequence creates a substrate that can be cleaved by the 5′-exonuclease activity of Taq polymerase. […] With each cycle, additional reporter dye molecules are cleaved from their respective probes, and the fluorescence intensity is monitored at regular intervals by laser optics built into the ABI PRISM™ Sequence Detection System. In each assay, a series of parallel reactions containing serial dilutions of mRNA from untreated control samples generates a standard curve that is used to quantitate the percent inhibition after antisense oligonucleotide treatment of test samples.
(§2) Prior to quantitative PCR analysis, primer-probe sets specific to the target gene being measured are evaluated for their ability to be “multiplexed” with a GAPDH amplification reaction. In multiplexing, both the target gene and the internal standard gene GAPDH are amplified concurrently in a single sample. In this analysis, mRNA isolated from untreated cells is serially diluted. Each dilution is amplified in the presence of primer-probe sets specific for GAPDH only, target gene only (“single-plexing”), or both (multiplexing). Following PCR amplification, standard curves of GAPDH and target mRNA signal as a function of dilution are generated from both the single-plexed and multiplexed samples. If both the slope and correlation coefficient of the GAPDH and target signals generated from the multiplexed samples fall within 10% of their corresponding values generated from the single-plexed samples, the primer-probe set specific for that target is deemed multiplexable. Other methods of PCR are also known in the art.
(§3) PCR reagents were obtained from Invitrogen Corporation, (Carlsbad, Calif.). […] The RT reaction was carried out by incubation for 30 minutes at 48° C. Following a 10 minute incubation at 95° C. to activate the PLATINUM® Taq, 40 cycles of a two-step PCR protocol were carried out: 95° C. for 15 seconds (denaturation) followed by 60° C. for 1.5 minutes (annealing/extension).
(§4) Gene target quantities obtained by real time RT-PCR are normalized using either the expression level of GAPDH, a gene whose expression is constant, or by quantifying total RNA using RiboGreen™ (Molecular Probes, Inc. Eugene, Oreg.). GAPDH expression is quantified by real time RT-PCR, by being run simultaneously with the target, multiplexing, or separately. Total RNA is quantified using RiboGreen™ RNA quantification reagent (Molecular Probes, Inc. Eugene, Oreg.). Methods of RNA quantification by RiboGreen™ are taught in Jones, L. J., et al, (Analytical Biochemistry, 1998, 265, 368-374). […]

[2] = system: rat p38α mRNA; test: Rat p38α mRNA levels in NR-8383 cells, quantitative real-time PCR; assay type: cell-based; settings: 300 nM oligonucleotide with FuGENE 6, 24 hours, mRNA by quantitative real-time PCR, average of two experiments
Excerpt: as §1, §2, §3, §4

| Substance | % Inhib. mouse p38α [1] | % Inhib. rat p38α [2] |
| --- | --- | --- |
| 320138 (antisense TAAAGGCAGGGCCACAGGAG; sugars from the 5' end e5 d10 e5, all phosphorothioate, methylation of C not given here) [compound 320138] | 87% | 46% |
| 320174 (antisense CCCGCTTGGGCTCCAGTGGC; sugars from the 5' end e5 d10 e5, all phosphorothioate, methylation of C not given here) [compound 320174] | 62% | 29% |
| 320149 (antisense AAGGAGCTCCTGGCTTCAGG; sugars from the 5' end e5 d10 e5, all phosphorothioate, methylation of C not given here) [compound 320149] | 74% | 25% |
| 320123 (antisense CAATAAATACATTTGCGAAG; sugars from the 5' end e5 d10 e5, all phosphorothioate, methylation of C not given here) [compound 320123] | 79% | 32% |
| 320146 (antisense GGCACTGGAGACCTCTGCAC; sugars from the 5' end e5 d10 e5, all phosphorothioate, methylation of C not given here) [compound 320146] | 74% | 57% |
| 320153 (antisense AATATTAAAATAATTTGCCC; sugars from the 5' end e5 d10 e5, all phosphorothioate, methylation of C not given here) [compound 320153] | 0% | 22% |
| 320115 (antisense GGGTTCCAACGAGTCTTAAA; sugars from the 5' end e5 d10 e5, all phosphorothioate, methylation of C not given here) [compound 320115] | 67% | 53% |
| 320145 (antisense GACCTCTGCACTGAGGTGAA; sugars from the 5' end e5 d10 e5, all phosphorothioate, methylation of C not given here) [compound 320145] | 52% | 44% |
| 320111 (antisense GTCAACAGCTCAGCCATGAT; sugars from the 5' end e5 d10 e5, all phosphorothioate, methylation of C not given here) [compound 320111] | 86% | 55% |
| 320139 (antisense GCAGCCTCTCTCTGTCACTG; sugars from the 5' end e5 d10 e5, all phosphorothioate, methylation of C not given here) [compound 320139] | 87% | 61% |
| 320142 (antisense GAGCCAGTTGGTTCTCTTGG; sugars from the 5' end e5 d10 e5, all phosphorothioate, methylation of C not given here) [compound 320142] | 85% | 53% |
| 320140 (antisense GGGATAGCCTCAGACCTGAA; sugars from the 5' end e5 d10 e5, all phosphorothioate, methylation of C not given here) [compound 320140] | 61% | 37% |
| 320148 (antisense CCAGGGCTTCCAGAAGACAG; sugars from the 5' end e5 d10 e5, all phosphorothioate, methylation of C not given here) [compound 320148] | 78% | 33% |
| 320152 (antisense TTTGCCCTTTCTCCCCATCA; sugars from the 5' end e5 d10 e5, all phosphorothioate, methylation of C not given here) [compound 320152] | 93% | 66% |
